Data taken from patent US4194006A, “Therapeutic application of acetyl-d,l-carnitine and other acyl derivatives of d,l-carnitine” (priority 1977, dated 1980).
Like-named read-outs stand apart in the source and are kept apart here.

What was measured:
isolated rabbit hearts [1] = assay: cardiokinetic effect on isolated heart (Langendorff): contractile force after anoxia, positive inotropic effect; settings: 10 minutes from interruption of anoxic period
Protocol: (§1) The cardiokinetic effect on isolated heart was also investigated as follows. Rabbit hearts isolated by the Langendorff method were perfused with oxygenized ringer solution at 38.2° C. The isometric contractions, electrocardiogram and coronary flow were recorded using a "Battaglia-Rangoni" polygraph. By removing the oxygen from the perfusion fluid, metabolic damage was induced in the cardia muscle, up to an 80% reduction in the cardiac contractile force.
(§2) Under these conditions of prolonged anoxia the aerobic glycolysis of the myocardium is slowed down, accompanied by the storage of acid catabolites due to both the accumulation of pyruvic acid and its conversion to lactic acid which cannot be utilized because of the depression of pyridine enzymes, such as LDH (lactodehydrogenase). This has repercussions on the anaerobic glycolysis affecting an ever increasing number of enzymes, accompanied by a progressive and increasingly critical exhaustion of the myocardium. Thus a whole series of cardiac muscle fatigue levels occurs which can be observed by the behavior of the examined parameters, namely the contractile force, coronary flow, heart rate and cardiac rhythm. As soon as the contractile force was reduced by 80%, the perfusion fluid was once again oxygenized either without adding other compounds (controls) or with the addition of the compounds under examination.
Table 3 below gives the percentage values of the contractile force of the heart, showing a positive inotropic effect, calculated after 10 minutes from the interruption of the anoxic period (myocardial restoration).

isolated rat atrium = assay: antiarrhythmic effect, isolated rat atrium method of M. Libonati and G. Segre; settings: Rattus norvegicus
isolated rabbit hearts [2] = assay: coronary vasodilator effect: coronary flow, isolated heart (Langendorff)
Protocol: as §1, §2

female rats = assay: antifatigue effect: rota-rod; type: in vivo, rat; settings: Rattus norvegicus, ip, 0.25 h; for responders at 300 mg/kg: read-out: percentage of animals staying on the rota-rod more than 180 seconds, 300 mg/kg i.p.; for responders at 400 mg/kg: read-out: percentage of animals staying on the rota-rod more than 180 seconds, 400 mg/kg i.p.; for responders at 600 mg/kg: read-out: percentage of animals staying on the rota-rod more than 180 seconds, 600 mg/kg i.p.; for responders at 0.25 mg/kg: read-out: percentage of animals staying on the rota-rod more than 180 seconds, 0.25 mg/kg i.p.; for responders at 0.5 mg/kg: read-out: percentage of animals staying on the rota-rod more than 180 seconds, 0.50 mg/kg i.p.; for responders at 1 mg/kg: read-out: percentage of animals staying on the rota-rod more than 180 seconds, 1.00 mg/kg i.p.
Protocol: The antifatigue effect was also examined with the following results. The antifatigue effect was investigated by administering the compounds of the formula (I) according to the present application to female rats intraperitoneally in saline solution and saline solution alone to the controls by the same route. Every 15 minutes (sessions) after treatment, the animals were placed on a 6 cm diameter rod, rotating at 16 r.p.m. The percentage of the animals capable of staying on the rota-rod for a duration of more than 180 seconds was then recorded.

[3] = read-out: Mean percent variation versus controls: excitability (-%)
[4] = read-out: Mean percent variation versus controls: frequency max (-%)
[5] = read-out: Mean percent variation versus controls: refractory period (+%)
[6] = read-out: Mean percent variation versus controls: rheobase (+%)
[7] = session 6 (every 15 minutes), * p < 0.05

In the case of `CCC(=O)OC(CC(=O)[O-])C[N+](C)(C)C` (racemic) [propionyl-d,l-carnitine], the “Contractile force, Mean ± S.E.” value (isolated rabbit hearts [1]; 1·10^-5 g/lt) is reported as 60.1 ± 3.12%, the “Contractile force, Mean ± S.E.” value (isolated rabbit hearts [1]; 1·10^-6 g/lt) is reported as 32.0 ± 5.06% and the “Contractile force, Mean ± S.E.” value (isolated rabbit hearts [1]; 5·10^-6 g/lt) is reported as 38.4 ± 4.86%. For the same compound, the inhibition at 0.001 µg/mL (isolated rat atrium; [3]) was 2.24%, the inhibition at 0.01 µg/mL (isolated rat atrium; [3]) was 28.4% and the inhibition at 0.1 µg/mL (isolated rat atrium; [3]) was 14.7%. It also gave an inhibition at 0.001 µg/mL (isolated rat atrium; [4]) of 10.7%, an inhibition at 0.01 µg/mL (isolated rat atrium; [4]) of 11.4% and an inhibition at 0.1 µg/mL (isolated rat atrium; [4]) of 7.65%. It also gave an activation at 0.001 µg/mL (isolated rat atrium; [5]) of 8.16%, an activation at 0.01 µg/mL (isolated rat atrium; [5]) of 14% and an activation at 0.1 µg/mL (isolated rat atrium; [5]) of 19.3%. The activation at 0.001 µg/mL (isolated rat atrium; [6]) was 3.57%, the activation at 0.01 µg/mL (isolated rat atrium; [6]) was 51.3% and the activation at 0.1 µg/mL (isolated rat atrium; [6]) was 52.1%. The “Coronary flow, Mean ± S.E.” value (isolated rabbit hearts [2]; 1·10^-5 g/lt) was 89.27 ± 7.24%, the “Coronary flow, Mean ± S.E.” value (isolated rabbit hearts [2]; 1·10^-6 g/lt) was 80.61 ± 7.56% and the “Coronary flow, Mean ± S.E.” value (isolated rabbit hearts [2]; 5·10^-6 g/lt) was 78.76 ± 11.03%. For the same compound, the responders at 300 mg/kg (female rats; session 1 (every 15 minutes)) was 0%, the responders at 300 mg/kg (female rats; session 2 (every 15 minutes)) was 0% and the responders at 300 mg/kg (female rats; session 3 (every 15 minutes)) was 0%. It also gave a responders at 300 mg/kg (female rats; session 4 (every 15 minutes)) of 10%, a responders at 300 mg/kg (female rats; session 5 (every 15 minutes)) of 20% and a responders at 300 mg/kg (female rats; session 6 (every 15 minutes)) of 40%. For the same compound, the responders at 400 mg/kg (female rats; session 1 (every 15 minutes)) was 0%, the responders at 400 mg/kg (female rats; session 2 (every 15 minutes)) was 0% and the responders at 400 mg/kg (female rats; session 3 (every 15 minutes)) was 10%. It also gave a responders at 400 mg/kg (female rats; session 4 (every 15 minutes)) of 20%, a responders at 400 mg/kg (female rats; session 5 (every 15 minutes)) of 20% and a responders at 400 mg/kg (female rats; [7]) of 40%. For the same compound, the responders at 600 mg/kg (female rats; session 1 (every 15 minutes)) was 0%, the responders at 600 mg/kg (female rats; session 2 (every 15 minutes)) was 10% and the responders at 600 mg/kg (female rats; session 3 (every 15 minutes)) was 20%. It also gave a responders at 600 mg/kg (female rats; session 4 (every 15 minutes)) of 30%, a responders at 600 mg/kg (female rats; session 5 (every 15 minutes)) of 40% and a responders at 600 mg/kg (female rats; [7]) of 40%.

With `CC(N)Cc1ccccc1` (racemic) [d,l-amphetamine, reference compound] the responders at 0.25 mg/kg (female rats; session 1 (every 15 minutes)) was 0%, the responders at 0.25 mg/kg (female rats; session 2 (every 15 minutes)) was 12.5% and the responders at 0.25 mg/kg (female rats; session 3 (every 15 minutes)) was 25%. For the same compound, the responders at 0.25 mg/kg (female rats; session 4 (every 15 minutes)) was 25%, the responders at 0.25 mg/kg (female rats; session 5 (every 15 minutes)) was 25% and the responders at 0.25 mg/kg (female rats; session 6 (every 15 minutes)) was 25%. For the same compound, the responders at 0.5 mg/kg (female rats; session 1 (every 15 minutes)) was 0%, the responders at 0.5 mg/kg (female rats; session 2 (every 15 minutes)) was 5.88% and the responders at 0.5 mg/kg (female rats; session 3 (every 15 minutes)) was 11.8%. For the same compound, the responders at 0.5 mg/kg (female rats; session 4 (every 15 minutes)) was 23.5%, the responders at 0.5 mg/kg (female rats; session 5 (every 15 minutes)) was 29.4% and the responders at 0.5 mg/kg (female rats; session 6 (every 15 minutes)) was 35.3%. The responders at 1 mg/kg (female rats; session 1 (every 15 minutes)) was 0%, the responders at 1 mg/kg (female rats; session 2 (every 15 minutes)) was 8.33% and the responders at 1 mg/kg (female rats; session 3 (every 15 minutes)) was 25%. It also gave a responders at 1 mg/kg (female rats; session 4 (every 15 minutes)) of 33.3%, a responders at 1 mg/kg (female rats; session 5 (every 15 minutes), * p < 0.05) of 58.3% and a responders at 1 mg/kg (female rats; [7]) of 58.3%.

With `C=C[C@H]1C[N@@]2CC[C@H]1C[C@@H]2[C@@H](O)c1ccnc2ccc(OC)cc12` [Quinidine, reference compound] the inhibition at 0.1 µg/mL (isolated rat atrium; 1·10^-4 g/lt, decrease, read-out: Mean percent variation versus controls: excitability (-%)) was 189%, the inhibition at 0.1 µg/mL (isolated rat atrium; 1·10^-4 g/lt, decrease, read-out: Mean percent variation versus controls: frequency max (-%)) was 71.2% and the activation at 0.1 µg/mL (isolated rat atrium; 1·10^-4 g/lt, increase, read-out: Mean percent variation versus controls: refractory period (+%)) was 57.4%. It also gave an activation at 0.1 µg/mL (isolated rat atrium; 1·10^-4 g/lt, increase, read-out: Mean percent variation versus controls: rheobase (+%)) of 54.1%, an inhibition at 0.01 µg/mL (isolated rat atrium; 1·10^-5 g/lt, decrease, read-out: Mean percent variation versus controls: excitability (-%)) of 23.4% and an inhibition at 0.01 µg/mL (isolated rat atrium; 1·10^-5 g/lt, decrease, read-out: Mean percent variation versus controls: frequency max (-%)) of 24.1%. It also gave an activation at 0.01 µg/mL (isolated rat atrium; 1·10^-5 g/lt, increase, read-out: Mean percent variation versus controls: refractory period (+%)) of 20.4%, an activation at 0.01 µg/mL (isolated rat atrium; 1·10^-5 g/lt, increase, read-out: Mean percent variation versus controls: rheobase (+%)) of 25.1% and an inhibition at 0.001 µg/mL (isolated rat atrium; 1·10^-6 g/lt, decrease, read-out: Mean percent variation versus controls: excitability (-%)) of 16.9%. The inhibition at 0.001 µg/mL (isolated rat atrium; 1·10^-6 g/lt, decrease, read-out: Mean percent variation versus controls: frequency max (-%)) was 11.7%, the activation at 0.001 µg/mL (isolated rat atrium; 1·10^-6 g/lt, increase, read-out: Mean percent variation versus controls: refractory period (+%)) was 3.12% and the activation at 0.001 µg/mL (isolated rat atrium; 1·10^-6 g/lt, increase, read-out: Mean percent variation versus controls: rheobase (+%)) was 7.14%.
